Data set [1] is described as follows: Pharmacokinetic determination in beagle dogs (IV). The settings on record: male, dog, plasma, 0.2 mg/kg.
Experimental: Beagle dogs were used as test animals to study the pharmacokinetic behavior of the compounds of the examples in the rats (plasma) after IV administration.
3 beagle dogs/group, male, from Yizheng Anlimao Biotechnology Co., Ltd.
The compounds of the examples were weighed and dissolved in this solution, vortexed, ultrasonicated for 5 min, and filtered through a 0.22 μm filter membrane to obtain colorless clear solutions with a concentration of 0.1 mg/mL.
3 beagle dogs/group, male were fasted overnight and then respectively administered IV at a dose of 0.2 mg/kg and a volume of 2 mL/kg.
1) Acetonitrile (200 μL) was added to the plasma sample (50 L) for precipitation, and the mixture was mixed and centrifuged at 4500 rpm for 15 min.
(§11) 2) The treated supernatant solution was taken and subjected to LC/MS/MS to analyze the concentrations of the test compounds. LC/MS/MS analysis instrument: AB Sciex Triple Quad 6500+.
Premier Peptide CSH C18 130A 1.7 μm 2.1*100 mm Column, mobile phase: liquid A: 5% acetonitrile aqueous solution (0.1% formic acid), and liquid B: an aqueous solution of 95% acetonitrile (0.1% formic acid) • Flow rate: 0.6 mL/min • Elution time: 0-2.0 min, the eluent was as follows:
(§12) The main pharmacokinetic parameters were calculated using WinNonlin 8.1.
The nature of data set [2]: in vivo. Conditions: male, Sprague-Dawley (SD), rat, iv, 1 mg/kg.
Experimental: (§13) SD rats were used as test animals to study the pharmacokinetic behavior of the compounds of the examples in the rats (plasma) after oral or IV administration.
Preparation of intravenous drug: PBS
(§14) The compounds of the examples were weighed and dissolved in this solution, vortexed, ultrasonicated for 5 min, and filtered through a 0.22 μm filter membrane to obtain colorless clear solutions with a concentration of 0.2 mg/mL.
(§15) 3 SD rats/group, male were fasted overnight and then respectively administered IV at a dose of 1 mg/kg and a volume of 5 mL/kg.
(§16) • Before administration and at 0.083 h, 0.25 h, 0.5 h, 1.0 h, 2.0 h, 4.0 h, 6.0 h, 8.0 h, and 24.0 h after administration (IV), 0.2 mL of blood was collected from the jugular vein, placed in an EDTA-2K test tube, and centrifuged at 6000 rpm for 6 min at 4° C. to separate plasma, which was stored at −20° C.; and the rats were fed 4 h after administration.
(§17) 1) Acetonitrile (200 μL) was added to the plasma sample (50 μL) for precipitation, and the mixture was mixed and centrifuged at 4500 rpm for 15 min.
as §11
(§18) • Liquid phase conditions: Shimadzu LC-30AD pump • Chromatographic column: HALO 90A PFP 2.7 μm 2.1×30 mm, mobile phase: liquid A: 5% acetonitrile aqueous solution (0.1% formic acid), and liquid B: an aqueous solution of 95% acetonitrile (0.1% formic acid) • Flow rate: 0.6 mL/min • Elution time: 0-2.0 min, the eluent was as follows:
as §12
Data set [3] in a line: Stability in plasma (human). Format: in vitro ADME. How it is done:
(§1) To study the stability of the compounds of the examples in the plasmas of mice, rats, dogs and humans.
(§2) Preparation of plasma: Animal or human whole blood was collected, then put into a test tube containing an anticoagulant, and centrifuged at 3500 rpm for 10 min, and the upper pale yellow plasma was collected; • working solution of 10 μM test compound: a stock solution was prepared with DMSO, and the working solution was prepared with 100 mM phosphate buffer; • working solution of 10 μM positive control: • procaine: 2.36 mg of procaine was weighed and diluted into a 10 mM stock solution with 1 mL of DMSO. 10 μL of the 10 mM stock solution was pipetted into 1 mL of 100 mM phosphate buffer, such that the final concentration was 100 μM; and • enalapril: 4.93 mg of enalapril was weighed and diluted into a 10 mM stock solution with 1 mL of DMSO; and 10 μL of the 10 mM stock solution was pipetted into 1 mL of 100 mM phosphate buffer, such that the final concentration was 100 μM.
(§3) In a 96-well plate, 285 μL of plasma and 15 μL of 10 μM compound (test compound, and positive control) were successively added and incubated at 37° C.
(§4) 40 μL was taken at 0, 15, 30, 60, 90, and 120 min (sampling points could be fine-tuned), respectively, and 160 μL of an acetonitrile stop solution containing an internal standard was added.
(§5) After centrifugation (3500 rpm, 10 min), 50 μL of the supernatant was taken, diluted by adding 50 μL of DDH2O, and then injected for LC-MS/MS.
(§6) • Instrument: Shimadzu LC-20 AD • Chromatographic column: Phenomenex Gemiu® C18 (50*4.6 mm, 5 μm particle size) • Mobile phase: A: acetonitrile, B: 0.1% formic acid solution • Elution gradient: […]: 5% A→95% A, 2.0-2.1 min: […] • Flow rate: 0.8 mL/min • Run time: 5.0 min • Injection volume: 5 μL
(§7) • Instrument: API4000 liquid chromatography mass spectrometer, AB, US • Ion source: electrospray ionization source (ESI) • Drying gas: N2, temperature 500° C. • Electrospray voltage: 5500V • Detection mode: positive ion detection • Scan mode: multi reaction monitoring (MRM) mode • Scan time: 0.1 s
(§8) All calculations were carried out using Microsoft Excel. The peak area ratio was determined by an extracted ion chromatogram.
(§9) The residual percentage of the compound at each time point was calculated by the following equation: Residual percentage at t hours (%)=peak area ratio at t hours/peak area ratio at 0 hour×100%, in which the peak area ratio at t hr was the peak area ratio of the […] at t min; and • the slope value k was determined by linear regression on the natural logarithm of the curve of the residual percentage of the parent drug versus the incubation time.
(§10) In vitro half-life (in vitro t1/2) was determined by the slope value: […]

A short description of data set [4]: Solubility in PBS. The settings on record: PBS pH 7.4, room temperature. It counts as physicochemical. On the procedure:
To study the solubility of the compounds in PBS.
About 2 mg of the compound was weighed, an appropriate amount of a PBS solution was added, and the mixture was dissolved clear by ultrasonication for 10 seconds. No precipitation was found after standing at room temperature overnight.

Data set [5] concerns activation of STAT3 phosphorylation by hIL23 in DB cells. Put plainly: Blocking the activation of STAT3 phosphorylation by hIL23 in DB cells (p-STAT3 ELISA). It counts as cell-based, Human. The settings on record: DB cells stimulated by rhIL-23 0.5 nM, half an hour; read-out: pStat3 IC50. How it is done:
To determine the inhibitory activity of the compounds of the present disclosure on the activation of STAT3 phosphorylation by hIL23 in DB cells
The compounds produced above were added to DB (ATCC Cat #CRL-2289) cells to inhibit the signal transduction of rhIL-23 cytokine. The screening of compounds was carried out by a multi-well plate (suitable for ELISA assay). Generally, in the presence of some of the above compounds of the present disclosure, 6.25×10^6 cells/ml of DB cells were stimulated by rhIL-23 (0.5 nM, R&D SYSTEMS) in RPMI medium (Invitrogen) containing 10% of FBS, and after half an hour, lysis was carried out on ice using 50 μL of 2×lysis buffer (CST). The content of p-STAT3 in the lysate was determined by PathScan Phospho-Stat3 (Tyr705) Sandwich ELISA Kit (CST Cat #7300C), so as to calculate the activity of the compounds of the present disclosure in blocking rhIL23 signal transduction in DB cells.
The inhibition rate was calculated as follows: […]
By using log (inhibitor) vs. response—Variable slope (four parameters) in Graphpad, the data of ELISA experiment results were subjected to non-linear regression fitting to fit a curve and obtain the IC50 value.

Data set [6] in a line: Pharmacokinetic determination in rats (IV). Conditions: male, Sprague-Dawley (SD), rat, plasma, 1 mg/kg.
Experimental: as §13
Preparation of intravenous drug: PBS
as §14, §15, §16, §17, §11, §18, §12
Data set [7] is described as follows: in vitro. It counts as in vitro ADME. Conditions: 37° C.; for half-life at 0.5 μM: in vitro half-life, read-out: t1/2 (converted); for remaining at 4 h, 0.5 µM: read-out: Residual ratio % at 4 h. On the procedure: as §1, §2, §3, §4, §5, §6, §7, §8, §9, §10

Each structure is given as a SMILES string.

What is called AUC(0-inf) is the area under the concentration-time curve extrapolated to infinity. As usually defined, the AUC(0-t) is the area under the concentration-time curve up to a stated or last time point. Read a high AUC(0-t) as more exposure. Broadly, the MRT is a mean duration of stay, worked out from the concentration-time curve. The clearance is a measure of how efficiently the substance is removed, as volume per time. Read a high clearance as a high capacity for elimination. Broadly, the solubility is how much of the substance goes into solution per volume. One may read the IC50 as the concentration at which inhibition is half-maximal. In data set [1], `CC(=O)NCCCC[C@@H]1NC(=O)[C@H](Cc2c[nH]c3c(C)cccc23)NC(=O)[C@H]([C@@H](C)O)NC(=O)[C@H](CC(N)=O)NC(=O)[C@@H](NC(C)=O)C(C)(C)SSC(C)(C)[C@@H](C(=O)N[C@@H](Cc2ccc(OCCN)cc2)C(=O)N[C@@H](Cc2ccc3ccccc3c2)C(=O)NC2(C(=O)N[C@@H](CCC(=O)O)C(=O)N[C@@H](CC(N)=O)C(=O)N[C@@H](Cc3cccnc3)C(=O)N(C)CCNC(=O)CCOCCOCC[N+](C)(C)CCNC(=O)COCCOCCNC(=O)COCCOCCNC(=O)CC[C@H](NC(=O)CCCCCCCCCCCCCCC(=O)O)C(=O)O)CCC(F)(F)CC2)NC1=O` [Example 1-16-1] registered an AUC(0-inf) of 76.4 µg·h/mL, an AUC(0-t) of 68.8 µg·h/mL, a C0 of 2.75 µg/mL and an MRT of 66.9 h. The molecule further came in with a clearance in data set [1] of 0.0024 L/h/kg. In data set [2], this molecule showed a half-life of 5 h. For the same molecule, the remaining at 4 h, 0.5 µM in data set [3] (Human plasma, 37° C., read-out: Residual ratio % at 4 h) came to 94.8%. In data set [3] (human, plasma), this molecule gave a half-life at 0.5 μM of 41.3 h. For the same molecule, in data set [4], the solubility was in the range of 39.6 to 59.4 mg/mL. Further, the IC50 in data set [5] was 4.8 pM. In data set [6], this molecule returned an AUC(0-inf) of 47.6 µg·h/mL, an AUC(0-t) of 46.1 µg·h/mL, a C0 of 12.6 µg/mL and an MRT of 6.2 h. This molecule also displayed a clearance in data set [6] of 0.021 L/h/kg. In data set [7] (Dog plasma), the half-life at 0.5 μM was 3.15 days and the remaining at 4 h, 0.5 µM turned out to be 90.5%. Besides, in data set [7] (Rat plasma), the half-life at 0.5 μM is 25.1 days and the remaining at 4 h, 0.5 µM amounted to 104%. For the same molecule, in data set [7] (mouse, Mice plasma), the half-life at 0.5 μM is 83.6 days and the remaining at 4 h, 0.5 µM worked out at 104%.
